# Reference: US20070208087A1, “Compounds, compositions and methods for the treatment of inflammatory diseases” (priority 2001, published 2007)
# “And” between values parts separate entries of the source, which are not always exact repeats. Identical values can stand only once. Like-named read-outs stand apart in the source and are kept apart here.
# Assays:
# Format in all cases: cell-based
# Microglial cells [1] = experiment: Dose response inhibition of NO release from microglia, 0.75-200 μM (Example 8)
# Procedure, shortened: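 Microglia plated at 1×10^5 cells/ml, stimulated with LPS/IFNγ and treated at 0.75, 1.56, 3.125, 6.25, 12.5, 25, 50, 100 and 200 μM. NO release measured after 48 hours by Griess reaction.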
# [2] = test system: EOC 13.31 microglia cells; experiment: NO release inhibition in LPS/IFNγ stimulated microglia, concurrent treatment, Griess reaction at 24 hours (Example 6); conditions: 24 hours; for NO release, Avg: 50 μM; for inhibition at 50 µM: Microglia
# Procedure, shortened: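 Confluent EOC 13.31 microglia were given 50 μM compound together with 1 pg/ml LPS plus 1 ng/ml IFNγ, or without stimulation. NO release was quantified spectrophotometrically by Griess reaction 24 hours later.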
# Microglial cells [3] = experiment: Dose response inhibition of NO release from microglia, 0.5-500 μM (Example 9); conditions: for μM NO release / μM NO release (No LPS average subtracted): 3 replicates
# Procedure, shortened: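 Cells seeded at 1×10^5 cells/ml and, after 48 h, stimulated with 10 ng/ml IFNγ plus 10 μg/ml LPS together with test compounds or L-NAME at 0.5–500 μM. NO release measured by Griess reaction after 48 h.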
# [4] = dose 200 μM, 48 hours, single replicates
# [5] = dose 0.5 μM, LPS/IFNγ, 48 hours
# [6] = dose 100 μM, LPS/IFNγ, 48 hours
# [7] = dose 250 μM, LPS/IFNγ, 48 hours
# [8] = dose 500 μM, LPS/IFNγ, 48 hours
smiles,measurement,setting,value
"O=C(NCc1ccc(O)c(O)c1)C(=Cc1ccc(O)c(O)c1)NC(=O)c1ccc(O)c(O)c1 [Compound 21, α-(3,4-dihydroxybenzamido)-3,4-dihydroxycinnamic acid 3,4-dihydroxybenzyl amide]",μM NO release Avg,"Microglial cells [1]; dose 200 μM, 48 hours",6.094 µM
same,% inhibition,Microglial cells [1]; [4],68.42% and 71.58%
same,OD values (printed under head μM NO release),Microglial cells [1]; [4],0.087 and 0.093 and 0.092
same,μM NO release,Microglial cells [1]; [4],5.625 µM and 6.41 µM
same,"inhibition of NO release, in words",Microglial cells [1]; dose response 0.75-200 μM,effective inhibitors of NO release
same,"NO release, Avg",[2]; Compound + LPS/IFNγ,15.3486 µM
same,"NO release, Avg",[2]; Compound Only (without LPS/IFNγ),-0.0417 µM
same,inhibition at 50 µM,"[2]; Compound + LPS/IFNγ, read-out: % inhibition of NO release",17.6%
same,inhibition at 50 µM,"[2]; Table 2 summary, LPS/IFNγ, read-out: % Inhibition (summary of inhibition of NO release)",17.6%
same,inhibition at 0.5 µM,"Microglial cells [3]; Microglia, 48 h, dose 0.5 μM, NO release, LPS/IFNγ, 48 hours, read-out: Avg % Inhibition",-0.76%
same,inhibition at 1 µM,"Microglial cells [3]; Microglia, 48 h, dose 1 μM, NO release, LPS/IFNγ, 48 hours, read-out: Avg % Inhibition",1.01%
same,inhibition at 5 µM,"Microglial cells [3]; Microglia, 48 h, dose 5 μM, NO release, LPS/IFNγ",0.76%
same,inhibition at 10 µM,"Microglial cells [3]; Microglia, 48 h, dose 10 μM, NO release, LPS/IFNγ",-1.27%
same,inhibition at 25 µM,"Microglial cells [3]; Microglia, 48 h, dose 25 μM, NO release, LPS/IFNγ",4.82%
same,inhibition at 50 µM,"Microglial cells [3]; Microglia, 48 h, dose 50 μM, NO release, LPS/IFNγ",13.2%
same,inhibition at 100 µM,"Microglial cells [3]; Microglia, 48 h, dose 100 μM, NO release, LPS/IFNγ, 48 hours, read-out: Avg % Inhibition",35.2%
same,inhibition at 100 µM,"Microglial cells [3]; Microglia, 48 h, dose 100 μM, individual replicates, NO release, LPS/IFNγ, 48 hours, read-out: % inhibition",29.4%
same,inhibition at 250 µM,"Microglial cells [3]; Microglia, 48 h, dose 250 μM, NO release, LPS/IFNγ, 48 hours, read-out: Avg % Inhibition",83.5%
same,inhibition at 250 µM,"Microglial cells [3]; Microglia, 48 h, dose 250 μM, individual replicates, NO release, LPS/IFNγ, 48 hours, read-out: % inhibition",81%
same,inhibition at 500 µM,"Microglial cells [3]; Microglia, 48 h, dose 500 μM, NO release, LPS/IFNγ, 48 hours, read-out: Avg % Inhibition",80.3%
same,inhibition at 500 µM,"Microglial cells [3]; Microglia, 48 h, dose 500 μM, individual replicates, NO release, LPS/IFNγ, 48 hours, read-out: % inhibition",78%
same,μM NO release,Microglial cells [3]; [5],19.722 µM and 20.139 µM and 20.417 µM
same,μM NO release (No LPS average subtracted),Microglial cells [3]; [5],18.02 µM and 18.44 µM and 18.72 µM
same,% inhibition,"Microglial cells [3]; dose 0.5 μM, individual replicates, NO release, LPS/IFNγ, 48 hours",1.27% and −1.01% and −2.54%
same,μM NO release,"Microglial cells [3]; dose 1 μM, LPS/IFNγ, 48 hours",20.694 µM and 19.444 µM and 19.167 µM
same,μM NO release (No LPS average subtracted),"Microglial cells [3]; dose 1 μM, LPS/IFNγ, 48 hours",18.99 µM and 17.74 µM and 17.47 µM
same,% inhibition,"Microglial cells [3]; dose 1 μM, individual replicates, NO release, LPS/IFNγ, 48 hours",−4.06% and 2.79% and 4.31%
same,μM NO release,"Microglial cells [3]; dose 5 μM, LPS/IFNγ, 48 hours",20.278 µM and 20.000 µM and 19.167 µM
same,μM NO release (No LPS average subtracted),"Microglial cells [3]; dose 5 μM, LPS/IFNγ, 48 hours",18.58 µM and 18.30 µM and 17.47 µM
same,% inhibition,"Microglial cells [3]; dose 5 μM, individual replicates, NO release, LPS/IFNγ, 48 hours",−1.78% and −0.25% and 4.31%
same,μM NO release,"Microglial cells [3]; dose 10 μM, LPS/IFNγ, 48 hours",20.556 μM (2×) and 19.444 μM
same,μM NO release (No LPS average subtracted),"Microglial cells [3]; dose 10 μM, LPS/IFNγ, 48 hours",18.86 μM (2×) and 17.74 μM
same,% inhibition,"Microglial cells [3]; dose 10 μM, individual replicates, NO release, LPS/IFNγ, 48 hours",−3.30% (2×) and 2.79%
same,μM NO release,"Microglial cells [3]; dose 25 μM, LPS/IFNγ, 48 hours",19.722 µM and 18.889 µM and 18.611 µM
same,μM NO release (No LPS average subtracted),"Microglial cells [3]; dose 25 μM, LPS/IFNγ, 48 hours",18.02 µM and 17.19 µM and 16.91 µM
same,% inhibition,"Microglial cells [3]; dose 25 μM, individual replicates, NO release, LPS/IFNγ, 48 hours",1.27% and 5.83% and 7.36%
same,μM NO release,"Microglial cells [3]; dose 50 μM, LPS/IFNγ, 48 hours",18.472 µM and 16.806 µM and 17.361 µM
same,μM NO release (No LPS average subtracted),"Microglial cells [3]; dose 50 μM, LPS/IFNγ, 48 hours",16.77 µM and 15.11 µM and 15.66 µM
same,% inhibition,"Microglial cells [3]; dose 50 μM, individual replicates, NO release, LPS/IFNγ, 48 hours",8.12% and 17.25% and 14.20%
same,μM NO release,Microglial cells [3]; [6],14.583 µM and 12.639 µM and 13.333 µM
same,μM NO release (No LPS average subtracted),Microglial cells [3]; [6],12.88 µM and 10.94 µM and 11.63 µM
same,% inhibition,"Microglial cells [3]; dose 100 μM, individual replicates, NO release, LPS/IFNγ, 48 hours",40.07% and 36.27%
same,μM NO release,Microglial cells [3]; [7],5.163 µM and 3.940 µM and 5.027 µM
same,μM NO release (No LPS average subtracted),Microglial cells [3]; [7],3.46 µM and 2.24 µM and 3.33 µM
same,% inhibition,"Microglial cells [3]; dose 250 μM, individual replicates, NO release, LPS/IFNγ, 48 hours",87.73% and 81.77%
same,μM NO release,Microglial cells [3]; [8],5.707 µM and 4.348 µM and 5.842 µM
same,μM NO release (No LPS average subtracted),Microglial cells [3]; [8],4.01 µM and 2.65 µM and 4.14 µM
same,% inhibition,"Microglial cells [3]; dose 500 μM, individual replicates, NO release, LPS/IFNγ, 48 hours",85.49% and 77.31%
same,"inhibition of NO release, in words",Microglial cells [3]; dose response 0.5-500 μM,most effective at the 250 μM dose
